Values of other authors as cited in patent publication US6617154B1, “Electroporation chamber including an electrode having a continuous, crystalline metal nitride coating” (MaxCyte, Inc., priority 1996, dated 2003).

Key:
[1] = experimental animals; DPG or its precursors
[2] = molecular target: T1, hemoglobin (Homo sapiens, UniProt P68871); conditions: relative to DPG
[3] = molecular target: T1, hemoglobin; conditions: pH 7.4, 37 degrees C
[4] = under ordinary circumstances, not bound to hemoglobin
[5] = system: mammalian erythrocyte membrane

T1 sequence (P68871 2-147 limits assumed): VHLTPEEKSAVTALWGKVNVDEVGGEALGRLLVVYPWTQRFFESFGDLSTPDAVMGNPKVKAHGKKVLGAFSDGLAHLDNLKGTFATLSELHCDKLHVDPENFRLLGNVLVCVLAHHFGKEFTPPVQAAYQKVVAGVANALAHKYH
T1 sequence (P69905 2-142 partner limits assumed): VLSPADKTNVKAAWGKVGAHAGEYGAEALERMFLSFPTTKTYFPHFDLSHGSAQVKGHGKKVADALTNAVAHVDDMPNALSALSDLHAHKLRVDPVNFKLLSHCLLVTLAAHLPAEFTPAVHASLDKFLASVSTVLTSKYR

Row | affinity to hemoglobin, higher than DPG [2] [fold] | P50 of hemoglobin [3] [mm Hg] | passage through the mammalian erythrocyte membrane [5] | Structure (SMILES) | duration of transient elevation of oxygen deposition [1] [h] | toxicity [4]
1 | – | – | – | O=C(O)C(COP(=O)(O)O)OP(=O)(O)O (centres unmarked) [DPG, 2,3-diphosphoglycerate] | 6 to 12 | –
2 | 1000 | ≤ 96.4 | unable to pass | O=P(O)(O)O[C@H]1[C@H](OP(=O)(O)O)[C@@H](OP(=O)(O)O)[C@H](OP(=O)(O)O)[C@@H](OP(=O)(O)O)[C@H]1OP(=O)(O)O [IHP, inositol hexaphosphate] | – | toxic
